Laboratory results as given in patent US20100022521A1, “COMPOUNDS” (Hansa Metallwerke AG, priority 2005, published 2010).

Biological target: mGluR5 (UniProt P31424)
Assay: MGluR5 receptor binding test ([3H]-M-MPEP displacement)
Parameters: species or system rat
Settings: radioligand [3H]-M-MPEP (2 nM); species not given; read-out: mGlu5 Ki
Protocol: MGluR5 Receptor Binding Tests
Rat cerebro-cortical membrane preparation was used to determine the binding characteristics of reference compounds and novel compounds to the rat mGluR5. The A18 cell line expressing hmGluR5a (purchased from Euroscreen) was used to determine binding characteristics of the chemical compounds to the human mGluR5a receptor. As radioligand [3H]-M-MPEP (2 nM) was used. The nonspecific binding was determined in the presence of 10 μM M-MPEP.

SMILES	Ki [nM]
O=S(=O)(c1ccc(Cl)cc1)c1sc2ncccc2c1-c1ccc(Cl)cc1 [Compound 1, 2-(4-Chloro-benzenesulfonyl)-3-(4-chloro-phenyl)-thieno[2,3-b]pyridine]	< 500
[O-][S+](c1ccc(Cl)cc1)c1sc2ncccc2c1-c1ccc(Cl)cc1 (stereo not drawn) [Compound 2]	< 500
O=S(=O)(c1ccc(F)cc1)c1sc2ncccc2c1-c1ccc(Cl)cc1 [Compound 3]	< 500
Cc1ccc(S(=O)(=O)c2sc3ncccc3c2-c2ccc(Cl)cc2)cc1 [Compound 4]	< 500
CC(=O)Nc1ccc(S(=O)(=O)c2sc3ncccc3c2-c2ccc(Cl)cc2)cc1 [Compound 5]	> 1500
N#Cc1ccc(S(=O)(=O)c2sc3ncccc3c2-c2ccc(Cl)cc2)cc1 [Compound 7]	< 500
O=S(=O)(c1ccccc1)c1sc2ncccc2c1-c1ccc(Cl)cc1 [Compound 8]	< 500
N#Cc1cccc(S(=O)(=O)c2sc3ncccc3c2-c2ccc(Cl)cc2)c1 [Compound 9]	< 500
O=S(=O)(c1cccnc1)c1sc2ncccc2c1-c1ccc(Cl)cc1 [Compound 10]	< 500
CCCCS(=O)(=O)c1sc2ncccc2c1-c1ccc(Cl)cc1 [Compound 11]	500 to 1500
Cc1nc(C)c(S(=O)(=O)c2sc3ncccc3c2-c2ccc(Cl)cc2)s1 [Compound 12]	500 to 1500
O=S(=O)(c1ccc(Cl)cc1)c1sc2ncccc2c1N1CCC(C(F)(F)F)CC1 [Compound 92]	< 500
N#CC1CCN(c2c(S(=O)(=O)c3ccc(Cl)cc3)sc3ncccc23)CC1 [Compound 93]	500 to 1500
CC1CCN(c2c(S(=O)(=O)c3ccc(Cl)cc3)sc3ncccc23)CC1 [Compound 94]	< 500
CC1CCN(c2cc(C#N)cc(S(=O)(=O)c3sc4ncccc4c3N3CCC(C)CC3)c2)CC1 [Compound 95]	500 to 1500
CC1CCN(c2c(S(=O)(=O)c3cc(F)cc(C#N)c3)sc3ncccc23)CC1 [Compound 96]	< 500
O=S(=O)(c1ccc(Cl)cc1)c1sc2ncc(Cl)cc2c1-c1ccc(Cl)cc1 [Compound 97, 5-Chloro-2-(4-chloro-benzenesulfonyl)-3-(4-chloro-phenyl)-thieno[2,3-b]pyridine]	< 500
O=S(=O)(c1ccc(Cl)cc1)c1sc2ncccc2c1N1CCCC(O)C1 (stereo not drawn) [Compound 98]	< 500
O=S(=O)(c1ccc(Cl)cc1)c1sc2ncccc2c1N1CCC(O)CC1 [Compound 99]	500 to 1500
CN(C)c1c(S(=O)(=O)c2ccc(Cl)cc2)sc2ncccc12 [Compound 100]	< 500
COc1ccnc2sc(S(=O)(=O)c3ccc(Cl)cc3)c(-c3ccc(Cl)cc3)c12 [Compound 101, 2-(4-chloro-benzenesulfonyl)-3-(4-chloro-phenyl)-4-methoxy-thieno[2,3-b]pyridine]	< 500

SMILES	Ki [nM]
O=S(=O)(c1ccc(Cl)cc1)c1sc2nccc(F)c2c1-c1ccc(Cl)cc1 [Compound 102, 4-Fluor-2-(4-chloro-benzenesulfonyl)-3-(4-chloro-phenyl)-thieno[2,3-b]pyridine]	< 500
O=S(=O)(c1ccc(Cl)cc1)c1sc2nccc(O)c2c1-c1ccc(Cl)cc1 [Compound 103, 2-(4-chloro-benzenesulfonyl)-3-(4-chloro-phenyl)-4-hydroxy-thieno[2,3-b]pyridine]	500 to 1500
CC1CCN(c2c(S(=O)(=O)c3ccc(Cl)cc3)sc3ncc(N)cc23)CC1 [Compound 104, 5-Amino-2-(4-chloro-benzenesulfonyl)-3-(4-methyl-piperidine)-thieno[2,3-b]pyridine]	< 500
CC(=O)N1CCN(c2c(S(=O)(=O)c3ccc(Cl)cc3)sc3ncccc23)CC1 [Compound 105]	> 1500
CN1CCN(c2c(S(=O)(=O)c3ccc(Cl)cc3)sc3ncccc23)CC1 [Compound 106]	< 500
CC1CCN(c2c(S(=O)(=O)c3ccc(Cl)cc3)sc3ncc(O)cc23)CC1 [Compound 107]	< 500
CS(=O)(=O)c1ccc(-c2c(S(=O)(=O)c3ccc(Cl)cc3)sc3ncccc23)cc1 [Compound 108]	> 1500
O=S(=O)(c1ccc(Cl)cc1)c1sc2ncccc2c1-c1cccc(F)c1 [Compound 109]	< 500
N#Cc1cc(F)cc(S(=O)(=O)c2sc3ncccc3c2-c2cccc(F)c2)c1 [Compound 110, 2-(3-Cyano-5-fluoro-benzenesulfonyl)-3-(3-fluoro-phenyl)-thieno[2,3-b]pyridine]	< 500
CNC(=O)Nc1c(S(=O)(=O)c2ccc(OC)cc2)sc2ncccc12 [Compound 111]	> 1500
CNC(=O)Nc1c(S(=O)(=O)c2ccc(Cl)cc2)sc2ncccc12 [Compound 112]	> 1500
O=S(=O)(c1ccc(Cl)cc1)c1sc2ncccc2c1-c1ccccc1Cl [Compound 113]	< 500
O=S(=O)(c1ccc(Cl)cc1)c1sc2ncccc2c1-c1ccccc1F [Compound 114]	< 500
Nc1cnc2sc(S(=O)(=O)c3ccc(Cl)cc3)c(-c3cccc(F)c3)c2c1 [Compound 115, 5-Amino-2-(4-chloro-benzenesulfonyl)-3-(3-fluor-phenyl)-thieno[2,3-b]pyridine]	< 500
CS(=O)(=O)NC1CCN(c2c(S(=O)(=O)c3ccc(Cl)cc3)sc3ncccc23)CC1 [Compound 116]	> 1500
O=S(=O)(c1ccc(Cl)cc1)c1sc2ncccc2c1N1CC[S+]([O-])CC1 [Compound 117]	> 1500
O=S(=O)(c1ccc(Cl)cc1)c1sc2ncccc2c1N1CCN(c2ccc(F)cc2)CC1 [Compound 118]	> 1500
CC1CCN(c2c(S(=O)(=O)c3ccc(Cl)cc3)sc3nc(Cl)ccc23)CC1 [Compound 119]	< 500
COc1ccc(S(=O)(=O)c2sc3ncccc3c2NC(=O)N2CCC(C)CC2)cc1 [Compound 120, N-[2-(4-methoxy-benzenesulfonyl)-thieno[2,3b]pyridin-3-yl]-4-methyl-piperidine-1-carboxamide]	> 1500
O=C(Nc1c(S(=O)(=O)c2ccc(Cl)cc2)sc2ncccc12)N1CCCCC1 [Compound 121]	> 1500
CN1CCN(C(=O)Nc2c(S(=O)(=O)c3ccc(Cl)cc3)sc3ncccc23)CC1 [Compound 122]	> 1500

SMILES	Ki [nM]
O=S(=O)(c1ccc(Cl)cc1)c1sc2ncc(F)cc2c1-c1ccc(Cl)cc1 [Compound 123, 2-(4-Chloro-benzenesulfonyl)-3-(4-chloro-phenyl)-5-fluoro-thieno[2,3-b]pyridine]	< 500
CN(C)c1ccc(S(=O)(=O)c2sc3nccc(N(C)C)c3c2-c2ccc(Cl)cc2)cc1 [Compound 124, 3-(4-chloro-phenyl)-4-dimethylamino-2-(4-dimethylamino-benzenesulfonyl)-thieno[2,3-b]pyridine]	> 1500
Nc1ccnc2sc(S(=O)(=O)c3ccc(Cl)cc3)c(-c3ccc(Cl)cc3)c12 [Compound 125, 4-Amino-2-(4-chloro-benzenesulfonyl)-3-(4-chloro-phenyl)-thieno[2,3-b]pyridine]	< 500
COc1ccc(S(=O)(=O)c2sc3ncccc3c2-c2ccc(F)cc2)cc1F [Compound 126]	< 500
COc1ccc(S(=O)(=O)c2sc3ncccc3c2-c2cccc(F)c2)cc1F [Compound 127]	< 500
COc1ccc(S(=O)(=O)c2sc3ncccc3c2-c2cccc(Cl)c2)cc1F [Compound 128]	< 500
O=S(=O)(c1ccc(Cl)cc1)c1sc2ncccc2c1N1CCCC1 [Compound 129]	< 500
O=S(=O)(c1ccc(Cl)cc1)c1sc2ncccc2c1-c1ccc(F)cc1F [Compound 130]	< 500
Nc1cnc2sc(S(=O)(=O)c3ccc(Cl)cc3)c(-c3ccccc3F)c2c1 [Compound 131]	< 500
N#Cc1cc(F)cc(S(=O)(=O)c2sc3ncccc3c2-c2ccccc2F)c1 [Compound 132]	< 500
O=S(=O)(c1ccc(Cl)cc1)c1sc2ncccc2c1-n1cncn1 [Compound 133]	500 to 1500
O=S(=O)(c1ccc(Cl)cc1)c1sc2ncccc2c1N1CCC(F)(F)CC1 [Compound 134]	< 500
CN(C)c1ccnc2sc(S(=O)(=O)c3ccc(Cl)cc3)c(-c3ccc(Cl)cc3)c12 [Compound 135, 2-(4-Chloro-benzenesulfonyl)-3-(4-chloro-phenyl)-4-dimethylamino-thieno[2,3-b]pyridine]	500 to 1500
N#Cc1cc(F)cc(S(=O)(=O)c2sc3ncccc3c2-c2cccc(Cl)c2)c1 [Compound 136]	< 500
O=S(=O)(c1ccc(Cl)cc1)c1sc2ncc(F)cc2c1-c1cccc(F)c1 [Compound 137, 2-(4-Chloro-benzenesulfonyl)-3-(3-fluoro-phenyl)-5-fluoro-thieno[2,3-b]pyridine]	< 500
N#Cc1cc(F)cc(S(=O)(=O)c2sc3nc(Cl)ccc3c2-c2cccc(F)c2)c1 [Compound 138]	< 500
N#Cc1cc(F)cc(S(=O)(=O)c2sc3nc(F)ccc3c2-c2cccc(F)c2)c1 [Compound 139]	< 500
O=S(=O)(c1ccc(Cl)cc1)c1sc2ncccc2c1N1CCC(CO)CC1 [Compound 140]	< 500
O=S(=O)(c1ccc(Cl)cc1)c1sc2ncccc2c1N1CC[C@@H](F)C1 [Compound 141]	< 500

Biological target: T1, rat mGluR1 (Rattus norvegicus, UniProt P23385)
T1 construct: rat cerebellar membrane preparation was used; from tissue; host or cells: rat cerebellum (membrane preparation)
Assay: MGluR1 receptor binding test ([3H]R214127 displacement)
Settings: rat cerebellar membrane; radioligand [3H]R214127 (3 nM); read-out: mGlu1 Ki
Protocol: MGluR1 Receptor Binding Test
MGluR1 receptor binding testes were performed according to modified method of Lavreysen et al. (Mol. Pharm., 2003, 63, 1082). Based on the high homology between the human and rat mGluR1 receptors, rat cerebellar membrane preparation was used to determine the binding characteristics of reference compounds and novel compounds to the rat mGluR1. As radioligand [3H]R214127 (3 nM) was used and the nonspecific binding was determined in the presence of 1 μM of R214127.
IC-50 values were determined from displacement curves by nonlinear regression analysis and were converted by equation method of Cheng and Prusoff (Biochem. Pharmacol., 1973, 22, 3099) to Ki values.

T1 sequence (P23385 19-1199): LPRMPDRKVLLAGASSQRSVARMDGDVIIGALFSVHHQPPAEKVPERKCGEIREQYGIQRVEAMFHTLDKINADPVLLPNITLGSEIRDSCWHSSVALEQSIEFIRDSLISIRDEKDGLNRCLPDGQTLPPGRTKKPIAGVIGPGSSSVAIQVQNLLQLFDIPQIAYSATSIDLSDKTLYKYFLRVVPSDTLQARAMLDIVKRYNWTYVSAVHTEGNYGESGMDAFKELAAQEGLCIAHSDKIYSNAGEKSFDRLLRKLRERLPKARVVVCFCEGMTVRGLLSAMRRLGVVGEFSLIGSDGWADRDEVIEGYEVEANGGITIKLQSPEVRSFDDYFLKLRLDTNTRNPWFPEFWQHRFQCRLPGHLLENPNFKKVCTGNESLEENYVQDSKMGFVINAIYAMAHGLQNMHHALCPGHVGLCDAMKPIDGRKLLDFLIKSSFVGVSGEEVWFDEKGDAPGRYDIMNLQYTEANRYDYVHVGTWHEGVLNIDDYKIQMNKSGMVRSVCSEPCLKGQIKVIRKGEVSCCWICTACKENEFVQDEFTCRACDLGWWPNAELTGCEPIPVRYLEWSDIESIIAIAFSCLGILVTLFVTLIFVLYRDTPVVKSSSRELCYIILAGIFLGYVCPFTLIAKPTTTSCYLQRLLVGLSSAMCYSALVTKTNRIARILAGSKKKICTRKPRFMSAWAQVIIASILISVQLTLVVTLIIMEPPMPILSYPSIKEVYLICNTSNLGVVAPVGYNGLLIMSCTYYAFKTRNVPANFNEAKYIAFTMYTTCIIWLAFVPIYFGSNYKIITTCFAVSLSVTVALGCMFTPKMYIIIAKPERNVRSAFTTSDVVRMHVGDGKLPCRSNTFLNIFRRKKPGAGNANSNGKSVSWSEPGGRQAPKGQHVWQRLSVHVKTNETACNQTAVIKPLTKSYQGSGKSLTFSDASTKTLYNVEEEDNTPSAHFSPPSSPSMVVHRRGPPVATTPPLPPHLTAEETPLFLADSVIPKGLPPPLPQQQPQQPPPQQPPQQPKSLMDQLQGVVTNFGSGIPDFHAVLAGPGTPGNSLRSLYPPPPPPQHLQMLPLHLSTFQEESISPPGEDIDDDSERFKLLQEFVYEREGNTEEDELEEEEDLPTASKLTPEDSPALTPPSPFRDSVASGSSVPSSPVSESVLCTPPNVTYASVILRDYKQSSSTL

SMILES	Ki [nM]
O=S(=O)(c1ccc(Cl)cc1)c1sc2ncccc2c1-c1ccc(Cl)cc1 [Compound 1, 2-(4-Chloro-benzenesulfonyl)-3-(4-chloro-phenyl)-thieno[2,3-b]pyridine]	> 1500
[O-][S+](c1ccc(Cl)cc1)c1sc2ncccc2c1-c1ccc(Cl)cc1 (stereo not drawn) [Compound 2]	< 500
O=S(=O)(c1ccc(F)cc1)c1sc2ncccc2c1-c1ccc(Cl)cc1 [Compound 3]	> 1500
Cc1ccc(S(=O)(=O)c2sc3ncccc3c2-c2ccc(Cl)cc2)cc1 [Compound 4]	500 to 1500
CC(=O)Nc1ccc(S(=O)(=O)c2sc3ncccc3c2-c2ccc(Cl)cc2)cc1 [Compound 5]	> 1500
N#Cc1ccc(S(=O)(=O)c2sc3ncccc3c2-c2ccc(Cl)cc2)cc1 [Compound 7]	> 1500
O=S(=O)(c1ccccc1)c1sc2ncccc2c1-c1ccc(Cl)cc1 [Compound 8]	> 1500
N#Cc1cccc(S(=O)(=O)c2sc3ncccc3c2-c2ccc(Cl)cc2)c1 [Compound 9]	< 500
O=S(=O)(c1cccnc1)c1sc2ncccc2c1-c1ccc(Cl)cc1 [Compound 10]	> 1500
CCCCS(=O)(=O)c1sc2ncccc2c1-c1ccc(Cl)cc1 [Compound 11]	> 1500
Cc1nc(C)c(S(=O)(=O)c2sc3ncccc3c2-c2ccc(Cl)cc2)s1 [Compound 12]	> 1500
